The source of these data is article PMC7360687, “The Regulator PltZ Regulates a Putative ABC Transporter System PltIJKNOP of Pseudomonas aeruginosa ATCC 27853 in Response to the Antimicrobial 2,4-Diacetylphloroglucinol” (Frontiers in Microbiology, 2020).

For this experiment, the target named is T1, PltZ.
T1 construct: full gene cloned in pET-28b-derived vector, E. coli BL21 (DE3), Ni-NTA purified (His tag implied)
Kind of experiment: isothermal titration calorimetry. On the set-up: species or system Pseudomonas aeruginosa. The following applies: 25 °C; 20 mM Tris pH 8.0, 100 mM NaCl; independent binding model; read-out: binding constant. For orientation: Isothermal titration calorimetry measures the heat released or taken up as one component is titrated into another.

Regarding `CC(=O)c1c(O)cc(O)c(C(C)=O)c1O` [2,4-diacetylphloroglucinol], the Kd is about 190 nM.
